Tests used:
[1] = system: LL-37-induced inflammation in mouse ears; assay: LL37-induced model of rosacea in mice (ear thickness); type: in vivo; conditions: topical application to ears; FIG. 2; p<0.05 vs. vehicle at all time points
Description: Prior to dosing, animals are lightly anaesthetized with isofluorane and baseline right and left ear thickness measurements are made with a digital caliper (Mitutoyo 293-340). At t=−1 hrs, animals are lightly anaesthetized with isoflurane to allow topical application (dorsal side) of 10 μL of FPR2 agonist formulated in a vehicle consisting of PBS:ethanol (50:50), or vehicle control to both ears. At t=0 hr, mice are re-anaesthetized. Following ear thickness measurements, 20 uL of LL-37 (100 μM) is injected into the right ear, while PBS is injected into the left ear. Additional ear thickness measurements are taken at t=3 and 6 hours. After the last time point, mice are euthanized by CO2 inhalation and ears collected for additional analyses.

human FPR2 receptor = human FPR2 receptor (Homo sapiens (Human), UniProt P25090); assay: FLIPR Ca+2 response in HEK-Gα16 cells stably expressing the human FPR2 receptor; type: cell-based; design: FPR2 (% eff): unit not given here; conditions: Table 4; value in brackets, given mostly as fraction
Method in brief: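 HEK-Gα16 cells stably expressing human FPR2, loaded with 2 μM Fluo-4 in HBSS/20 mM HEPES for 40 min at 37° C., then washed. Ligands added in HBSS/Hepes and Ca+2 responses recorded on FLIPR in relative fluorescence units.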

FPRL-1 = FPRL-1 (Homo sapiens (Human), UniProt P25090); assay: FPRL-1 Ga16-CHO EC50 (efficacy); type: cell-based; conditions: Table 3; value in brackets
Sequence of FPRL-1 (P25090 whole entry): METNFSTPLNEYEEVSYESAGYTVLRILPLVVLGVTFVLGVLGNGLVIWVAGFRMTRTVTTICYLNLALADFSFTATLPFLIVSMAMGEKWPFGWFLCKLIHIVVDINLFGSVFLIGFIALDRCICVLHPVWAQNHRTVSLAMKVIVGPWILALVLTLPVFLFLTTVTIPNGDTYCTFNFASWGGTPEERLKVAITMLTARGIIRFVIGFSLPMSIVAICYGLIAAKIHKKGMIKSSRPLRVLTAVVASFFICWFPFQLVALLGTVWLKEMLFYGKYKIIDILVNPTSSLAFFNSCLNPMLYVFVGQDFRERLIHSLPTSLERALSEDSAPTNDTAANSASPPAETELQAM

Sequence of human FPR2 receptor (P25090 whole entry): as above

In the case of `CC[C@H](C)[C@H](NC(=O)Nc1ccc(Br)cc1)C(=O)NCC(=O)O` [Compound 3, {[(2S,3S)-2-{[(4-bromophenyl)carbamoyl]amino}-3-methylpentanoyl]amino} acetic acid], the “Anti-inflammatory activity in the LL-37-induced rosacea mouse model” value [1] is reported as “Anti-inflammatory activity” and the “FPR2 (% eff)” value (human FPR2 receptor) is reported as 1.0.

In the case of `CC(C)C[C@H](NC(=O)Nc1ccc(Br)cc1F)C(=O)NCC(=O)O` [Compound 7, {[(2S)-2-{[(4-bromo-2-fluorophenyl)carbamoyl]amino}-4-methylpentanoyl]amino} acetic acid], the “Anti-inflammatory activity in the LL-37-induced rosacea mouse model” value [1] is reported as “Anti-inflammatory activity”.

For `CC(C)C[C@H](NC(=O)Nc1ccc(Br)cc1)C(=O)NCC(=O)O` [Compound 8, {[(2S)-2-{[(4-bromophenyl)carbamoyl]amino}-4-methylpentanoyl]amino} acetic acid], the “Anti-inflammatory activity in the LL-37-induced rosacea mouse model” value [1] was “Anti-inflammatory activity”.

`CCC1(CC)NC(=O)N(CC(=O)Nc2ccc(Br)cc2)C1=O` [N-(4-bromophenyl)-2-(4,4-diethyl-2,5-dioxoimidazolidin-1-yl)acetamide] was tested, and the “FPRL-1 Gal16-CHO (efficacy)” value (FPRL-1) was 0.98.

In the case of `CC1(C)NC(=O)N(CC(=O)Nc2ccc(Br)cc2)C1=O` [N-(4-bromophenyl)-2-(4,4-dimethyl-2,5-dioxoimidazolidin-1-yl)acetamide], the “FPRL-1 Gal16-CHO (efficacy)” value (FPRL-1) is reported as 0.94.
